The values below come from article PMC9046087, “Structural basis of tethered agonism of the adhesion GPCRs ADGRD1 and ADGRF1” (Nature, 2022).

Residue numbers refer to the chain shown, from its start. Ends that are not written are not given here.

Common to all, as to assay: BRET assay using TRUPATH biosensors, Gs activation of ADGRF1
Common to all, as to type: cell-based

Experiment [1] addresses T1, ADGRF1 (Homo sapiens, UniProt Q5T601, R623A).
T1 construct: Flag (N); expressed in transfected cells; host or cells: HEK293F
T1 sequence (Q5T601 20-910 R623A): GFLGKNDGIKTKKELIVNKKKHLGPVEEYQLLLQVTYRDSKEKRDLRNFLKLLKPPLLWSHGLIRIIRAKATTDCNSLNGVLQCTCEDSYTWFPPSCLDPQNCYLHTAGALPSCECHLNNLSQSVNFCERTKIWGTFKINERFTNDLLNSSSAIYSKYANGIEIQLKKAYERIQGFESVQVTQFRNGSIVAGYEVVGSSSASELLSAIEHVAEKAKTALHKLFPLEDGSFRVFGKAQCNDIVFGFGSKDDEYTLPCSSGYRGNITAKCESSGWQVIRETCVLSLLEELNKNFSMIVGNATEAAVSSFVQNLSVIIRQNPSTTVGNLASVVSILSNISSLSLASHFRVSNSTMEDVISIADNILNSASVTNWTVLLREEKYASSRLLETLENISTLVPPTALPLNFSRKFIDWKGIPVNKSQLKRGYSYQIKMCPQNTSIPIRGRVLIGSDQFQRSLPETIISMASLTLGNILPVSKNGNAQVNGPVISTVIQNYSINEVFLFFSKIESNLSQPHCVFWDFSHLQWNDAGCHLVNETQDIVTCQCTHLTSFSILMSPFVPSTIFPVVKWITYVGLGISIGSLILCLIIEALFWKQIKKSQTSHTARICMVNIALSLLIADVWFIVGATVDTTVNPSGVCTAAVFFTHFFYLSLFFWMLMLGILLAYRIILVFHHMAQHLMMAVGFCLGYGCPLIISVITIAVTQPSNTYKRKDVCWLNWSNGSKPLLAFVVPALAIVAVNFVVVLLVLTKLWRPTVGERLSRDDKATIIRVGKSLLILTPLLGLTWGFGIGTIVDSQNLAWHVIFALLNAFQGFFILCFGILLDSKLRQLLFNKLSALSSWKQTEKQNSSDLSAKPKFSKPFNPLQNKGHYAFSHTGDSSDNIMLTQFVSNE
Conditions: Gs, ADGRF1 R623^2.46bA, n = 3. How it is done: (§1) To study the synthetic stalk peptide-induced G protein activation of ADGRD1 and ADGRF1, a BRET assay using TRUPATH biosensors was conducted to measure the proximal interaction between RLuc8 fused to the Gα subunit and GFP2 fused to the Gγ subunit. The TRUPATH suite of biosensors was obtained from Addgene (Addgene kit no. 1000000163) as a gift from B. Roth, including GαsS-RLuc8, Gαi1-RLuc8, Gβ3 and Gγ9-GFP2 as previously described.
(§2) The wild-type or mutant ADGRD1 and ADGRF1 were transiently co-transfected with plasmids encoding Gα-RLuc8 (GαsS-RLuc8 for Gs activation assay; Gαi1-RLuc8 for Gi activation assay), Gβ3 and Gγ9-GFP2 at a ratio of 2:1:1:1 (receptor plasmid, 800 ng; G protein subunit plasmids, 400 ng for each) in 2 ml HEK293F cells at a density of 1.2 × 10^6 cells per ml. Cell cultivation and receptor surface expression measurement were performed as described above. The cells were plated into 96-well white plates (40,000 cells per well) in 60 μl of assay buffer and incubated at 37 °C for 30 min. Then 10 μl of freshly prepared 50 μM coelenterazine 400a (Nanolight Technologies) was added. […] The cells were stimulated with 30 μl of synthetic stalk peptide at different concentrations and the BRET signals were monitored continuously five times. The last measurements were used in data analysis. The BRET ratios were calculated as the ratio of the GFP2 emission to RLuc8 emission.

Experiment [2] deals with T2, ADGRF1 (Homo sapiens, UniProt Q5T601, R788A).
T2 construct: Flag (N); expressed in transfected cells; host or cells: HEK293F
Conditions: Gs, ADGRF1 R788^6.37bA, n = 3. How it is done:
as §1, §2

Experiment [3] concerns the target T3, ADGRF1 (Homo sapiens, UniProt Q5T601, K791A).
T3 construct: Flag (N); expressed in transfected cells; host or cells: HEK293F
T3 sequence (Q5T601 20-910 K791A): T1 sequence (Q5T601 20-910 R623A) with A604R, K772A
Conditions: Gs, ADGRF1 K791^6.40bA, n = 3. How it is done:
as §1, §2

Setting [4] is: read-out: pEC50 (mean ± s.e.m.) (converted).

T2 sequence (Q5T601 20-910 R788A): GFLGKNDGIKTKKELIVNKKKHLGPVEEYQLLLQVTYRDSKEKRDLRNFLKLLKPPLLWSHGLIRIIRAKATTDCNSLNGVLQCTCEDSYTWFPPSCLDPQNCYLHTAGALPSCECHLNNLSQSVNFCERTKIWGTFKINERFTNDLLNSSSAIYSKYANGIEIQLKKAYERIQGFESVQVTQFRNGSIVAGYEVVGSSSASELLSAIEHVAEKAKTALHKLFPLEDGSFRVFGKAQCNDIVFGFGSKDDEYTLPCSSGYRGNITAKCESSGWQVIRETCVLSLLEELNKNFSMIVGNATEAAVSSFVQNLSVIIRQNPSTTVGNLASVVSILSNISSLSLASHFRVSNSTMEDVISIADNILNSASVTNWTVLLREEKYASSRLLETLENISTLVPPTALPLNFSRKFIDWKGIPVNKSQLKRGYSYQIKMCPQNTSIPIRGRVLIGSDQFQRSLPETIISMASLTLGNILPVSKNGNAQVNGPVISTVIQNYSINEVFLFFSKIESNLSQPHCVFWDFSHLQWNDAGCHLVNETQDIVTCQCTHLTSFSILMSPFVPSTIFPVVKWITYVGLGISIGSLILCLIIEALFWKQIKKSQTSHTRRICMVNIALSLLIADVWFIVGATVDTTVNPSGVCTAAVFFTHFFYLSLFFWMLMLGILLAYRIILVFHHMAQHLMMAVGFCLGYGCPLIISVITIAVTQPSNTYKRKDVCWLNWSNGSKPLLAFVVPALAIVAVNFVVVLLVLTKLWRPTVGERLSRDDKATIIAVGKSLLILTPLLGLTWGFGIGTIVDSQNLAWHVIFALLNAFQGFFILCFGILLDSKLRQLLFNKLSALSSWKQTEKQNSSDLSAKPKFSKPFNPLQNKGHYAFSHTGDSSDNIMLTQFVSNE

Regarding TSFSILMSPFVP [pF1], the “Emax (mean ± s.e.m.)” value is 57 ± 10 % of WT at ADGRF1 [1], 112 ± 15 % of WT on ADGRF1 [2] and 79 ± 13 % of WT at ADGRF1 [3]. Moreover, the EC50 at ADGRF1 [1] (setting [4]) was 148 nM; on ADGRF1 [2] (setting [4]), 933 nM; at ADGRF1 [3] (setting [4]), 912 nM.
